The structures appear in SMILES notation. The source made the active and inactive calls. No cut-off for these calls is given here. Bounds are passed on as bounds.

Data set [1] can be described thus: Selectivity index, ratio of CC50 for rat L6 cells to IC50 for Trypanosoma cruzi Tulahuen strain C2C4 amastigote forms infected in rat L6 cells. Format: toxicity, cell-based. The conditions noted are these: read-out: Ratio CC50/IC50.
Another data set has as its system Leishmania donovani. Put plainly: Antileishmanial activity against Leishmania donovani MHOM/ET/67/L82 axenic amastigotes after 72 hrs by alamar blue staining based fluorescence assay. Format: functional, organism-based. The conditions noted are these: MHOM/ET/67/L82, 72 h. (In general: Alamar Blue is a resazurin reagent that responds to reducing activity.)
The test system of data set [2] is Trypanosoma brucei rhodesiense. Nature of the data set: Antiprotozoal activity against Trypanosoma brucei rhodesiense STIB900 trypomastigote after 72 hrs by Alamar Blue assay. Format: functional, organism-based. The following applies: STIB900, 72 h.
In the next data set the test system is Plasmodium falciparum. Put plainly: Antiprotozoal activity against erythrocytic stage of chloroquine and pyrimethamine resistant Plasmodium falciparum K1 assessed as reduction in [3H]-hypoxanthine incorporation preincubated for 24 hrs followed by [3H]-hypoxanthine addition measured after 24 hrs by scintillation counting method. Format: functional, organism-based.

The nature of data set [3]: Cytotoxicity against rat L6 cells after 72 hrs by alamar blue staining based fluorescence assay. Format: cell-based.
Data set [4] addresses Sterol 14-alpha demethylase (Trypanosoma cruzi (strain CL Brener)) (UniProt Q7Z1V1). Nature of the data set: Binding affinity to Trypanosoma cruzi CYP51 at 5 to 10 uM by 96-well based UV-vis spectroscopic method.
Data set [5] is described as follows: Selectivity index, ratio of CC50 for rat L6 cells to IC50 for Leishmania donovani MHOM/ET/67/L82 axenic amastigotes. Format: toxicity. The conditions noted are these: read-out: Ratio CC50/IC50.
The test system of a further data set is Trypanosoma cruzi. Put plainly: Antitrypanosomal activity against Trypanosoma cruzi Tulahuen strain C2C4 amastigote forms infected in rat L6 cells after 96 hrs by CPRG/Nonidet reagent based photometric method. The conditions noted are these: Tulahuen strain C2C4, L6, 96 h. Format: functional, organism-based.
A short description of data set [6]: Selectivity index, ratio of CC50 for rat L6 cells to IC50 for erythrocytic stage of chloroquine and pyrimethamine resistant Plasmodium falciparum K1. The following applies: read-out: Ratio CC50/IC50. Format: toxicity.
Data set [7] can be described thus: Selectivity index, ratio of CC50 for rat L6 cells to IC50 for Trypanosoma brucei rhodesiense STIB900 trypomastigote. Format: toxicity. The following applies: read-out: Ratio CC50/IC50.

Chain of Sterol 14-alpha demethylase (Trypanosoma cruzi (strain CL Brener)) (Q7Z1V1 whole entry, looked up): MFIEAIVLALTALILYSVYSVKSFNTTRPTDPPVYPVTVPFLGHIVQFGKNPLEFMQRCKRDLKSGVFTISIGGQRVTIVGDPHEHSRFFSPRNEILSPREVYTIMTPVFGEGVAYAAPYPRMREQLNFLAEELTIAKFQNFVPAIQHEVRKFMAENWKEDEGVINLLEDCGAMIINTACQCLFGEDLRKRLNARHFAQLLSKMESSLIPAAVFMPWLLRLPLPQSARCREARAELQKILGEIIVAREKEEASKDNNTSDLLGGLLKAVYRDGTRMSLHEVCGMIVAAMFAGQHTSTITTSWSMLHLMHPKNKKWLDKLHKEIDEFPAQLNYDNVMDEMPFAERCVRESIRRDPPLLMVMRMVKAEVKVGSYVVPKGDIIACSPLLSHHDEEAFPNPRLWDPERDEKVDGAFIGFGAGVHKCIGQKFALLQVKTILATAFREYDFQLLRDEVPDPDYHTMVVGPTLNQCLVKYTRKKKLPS

Take `Clc1ccc(-c2c[nH]cc2C(c2ccc(Cl)cc2Cl)n2ccnc2)c(Cl)c1` (stereo not given): the figures for the selectivity ratio in data set [1], in data set [5] and in data set [6] were 290, 8 and 55, respectively. Besides, the IC50 – broadly, the midpoint of a concentration-inhibition curve – with Leishmania donovani is 1.19 µM; in data set [2] it was 10.5 µM; in the data set on Plasmodium falciparum, 0.18 µM; with Trypanosoma cruzi, 0.034 µM. For the same molecule, it took 9.86 µM to reach half-maximal cytotoxicity in data set [3] (CC50 at 72 h). The result in data set [4] was Active.

On to `COc1cc([C@@H]2c3cc4c(cc3[C@H](O)[C@H]3COC(=O)[C@H]23)OCO4)cc(OC)c1OC` [PODOFILOX], for which the half-maximal cytotoxic concentration (CC50) (in general, the concentration at which the toxic effect on the cells reaches its halfway point) at 72 h in data set [3] was 0.007 µM. In other words, the single-digit nanomolar range.

Turning to `Clc1ccc(-c2c[nH]cc2C(c2ccc(Cl)cc2)n2ccnc2)cc1` (stereo not given), the selectivity ratio in data set [1] amounted to 85; in data set [5], 1; in [6], 37. Also, the IC50 stood at 7.01 µM in the data set with Leishmania donovani, 15.9 µM in data set [2], 0.13 µM in the data set on Plasmodium falciparum and 0.057 µM in the data set on Trypanosoma cruzi. Further, the midpoint of cytotoxicity in data set [3], the CC50 at 72 h, lay at 4.83 µM.

As for `Cc1ccc(C(c2ccn(-c3ccc(Cl)cc3)c2)n2ccnc2)cc1` (stereo not given), the selectivity ratio in [1] was 25; in data set [5], 3; in data set [6] it was 17. The IC50 worked out at 12.5 µM with Leishmania donovani, 53.5 µM in [2], 2.53 µM in the data set on Plasmodium falciparum and 1.72 µM with Trypanosoma cruzi. Besides, the midpoint of cytotoxicity in data set [3], the CC50 at 72 h, lay at 42.6 µM.

Turning to `Clc1ccc(C(c2c[nH]cc2-c2ccc(Cl)c(Cl)c2)n2ccnc2)c(Cl)c1` (stereo not given), the results for the selectivity ratio in [1], in data set [5] and in data set [6] were 173, 1 and 26, respectively. Also, the IC50 in the data set with Leishmania donovani came to 4.6 µM; in data set [2] it was 12.5 µM; in the data set with Plasmodium falciparum it was 0.14 µM; in the data set with Trypanosoma cruzi, 0.021 µM. Further, in [3], it took 3.64 µM to reach half-maximal cytotoxicity (CC50 at 72 h). The result in data set [4] was Active.

Turning to `Clc1ccc(C(c2c[nH]cc2-c2ccc(-c3ccccc3)cc2)n2ccnc2)c(Cl)c1` (stereo not given), the half-maximal inhibitory concentration (IC50) with Leishmania donovani was 12.3 µM; in [2] it was 17.7 µM; in the data set on Plasmodium falciparum, more than 11 µM; in the data set with Trypanosoma cruzi, 32.6 µM. For the same molecule, in data set [3], the cytotoxic concentration (CC50) at 72 h is more than 202 µM.

For the molecule `Clc1ccc(C(c2c[nH]cc2-c2cccc3ccccc23)n2ccnc2)c(Cl)c1` (stereo not given), the selectivity ratio worked out at 128 in data set [1], 1 in data set [7], 6 in data set [5] and 37 in [6]. Moreover, the 50% inhibitory concentration (IC50) worked out at 1.91 µM with Leishmania donovani, 12 µM in data set [2], 0.33 µM in the data set with Plasmodium falciparum and 0.096 µM in the data set with Trypanosoma cruzi. The molecule also came in with a CC50 at 72 h in data set [3] of 12.3 µM.

Take `O=C(Cn1ccnc1[N+](=O)[O-])NCc1ccccc1` [BENZNIDAZOLE]: the midpoint of inhibition with Trypanosoma cruzi, the IC50, lay at 1.65 µM.

On to `CSc1ccc(-c2c[nH]cc2C(c2ccc(Cl)cc2Cl)n2ccnc2)cc1` (stereo not given), for which the selectivity ratio was found to be 168 in data set [1], 1 in data set [5] and 30 in [6]. Also, the 50% inhibitory concentration (IC50) in the data set on Leishmania donovani came out at 5.12 µM; in data set [2], 15.8 µM; with Plasmodium falciparum, 0.24 µM; in the data set with Trypanosoma cruzi, 0.043 µM. For the same molecule, in data set [3], it took 7.22 µM to reach half-maximal cytotoxicity (CC50 at 72 h).

`CC(C)(C)c1ccc(-c2c[nH]cc2C(c2ccc(Cl)cc2Cl)n2ccnc2)cc1` (stereo not given): the selectivity ratio was found to be 2 in data set [1], 3 in data set [5] and 60 in data set [6]. Also, the IC50 amounted to 6.98 µM with Leishmania donovani, 41.2 µM in [2], 0.38 µM in the data set with Plasmodium falciparum and 12.8 µM in the data set with Trypanosoma cruzi. This molecule also came in with a half-maximal cytotoxic concentration (CC50) at 72 h in [3] of 22.9 µM.

In the data set on Leishmania donovani, `CCCCCCCCCCCCCCCCOP(=O)([O-])OCC[N+](C)(C)C` [MILTEFOSINE] gave a 50% inhibitory concentration (IC50) of 0.56 µM.

In the case of `Clc1ccc(C(c2c[nH]cc2-c2ccc(-c3ccncc3)cc2)n2ccnc2)c(Cl)c1` (stereo not given), the selectivity ratio in data set [1] came to 6; in [7], 2; in data set [5] it was 2; in data set [6], 53. The concentration for half-maximal inhibition (IC50) with Leishmania donovani came out at 7.52 µM; in [2], 9.74 µM; with Plasmodium falciparum, 0.29 µM; in the data set on Trypanosoma cruzi, 2.42 µM. Further, it took 15.5 µM to reach half-maximal cytotoxicity in data set [3] (CC50 at 72 h).

Consider `Nc1nc(N)nc(Nc2ccc([As]3SCC(CO)S3)cc2)n1` (stereo not given) [MELARSOPROL], for which the half-maximal inhibitory concentration (IC50) in [2] was 0.0088 µM.

`N#Cc1ccc(-c2c[nH]cc2C(c2ccc(Cl)cc2Cl)n2ccnc2)cc1` (stereo not given): the selectivity ratio in data set [1] was determined as 2; in data set [7] it was 1; in data set [5], 2; in data set [6], 23. The IC50 is 8.75 µM in the data set with Leishmania donovani, 11.7 µM in [2], 0.66 µM in the data set with Plasmodium falciparum and 10 µM in the data set on Trypanosoma cruzi. Moreover, the 50% cytotoxic concentration (CC50) at 72 h in data set [3] was determined as 15 µM.

`FC(F)(F)c1ccc(-c2c[nH]cc2C(c2ccc(Cl)cc2Cl)n2ccnc2)cc1` (stereo not given): the selectivity ratio in data set [1] was found to be 188; in data set [6], 67. The half-inhibitory concentration (IC50) with Leishmania donovani was 12 µM; in data set [2] it was 11.3 µM; with Plasmodium falciparum, 0.14 µM; with Trypanosoma cruzi it was 0.05 µM. Moreover, the CC50 at 72 h in data set [3] was found to be 9.4 µM.

Regarding `Clc1ccc(-c2c[nH]cc2C(c2ccc(Cl)cc2Cl)n2ccnc2)cc1` (stereo not given), the selectivity ratio was determined as 275 in [1], 3 in data set [5] and 60 in data set [6]. The IC50 in the data set with Leishmania donovani was found to be 3.77 µM; in data set [2], 17.3 µM; in the data set on Plasmodium falciparum it was 0.16 µM; with Trypanosoma cruzi, 0.035 µM. In addition, it took 9.61 µM to reach half-maximal cytotoxicity in [3] (CC50 at 72 h). The result in data set [4] was Active.

Regarding `Cc1ccc(C(c2ccn(-c3ccc(F)cc3)c2)n2ccnc2)cc1` (stereo not given), the selectivity ratio stood at 21 in [1], 4 in data set [7], 2 in data set [5] and 28 in data set [6]. For the same molecule, the IC50 in the data set with Leishmania donovani is 27.6 µM; in [2], 15.8 µM; with Plasmodium falciparum, 2.17 µM; with Trypanosoma cruzi, 2.96 µM. In [3], this molecule returned a half-maximal cytotoxic concentration (CC50) at 72 h of 60.6 µM.

Consider `Fc1ccc(-n2ccc(C(c3ccccc3)n3ccnc3)c2)cc1` (stereo not given), for which the selectivity ratio was 17 in data set [1], 5 in data set [7], 3 in data set [5] and 19 in [6]. The IC50 in the data set on Leishmania donovani worked out at 31.5 µM; in data set [2], 20.4 µM; with Plasmodium falciparum, 5.36 µM; in the data set with Trypanosoma cruzi it was 6.14 µM. In data set [3], this molecule showed a CC50 at 72 h of 104 µM.

Turning to `Fc1ccc(C(c2ccn(-c3ccc(F)cc3)c2)n2ccnc2)cc1` (stereo not given), the selectivity ratio turned out to be 19 in [1], 2 in [7], 2 in data set [5] and 20 in data set [6]. The IC50 in the data set on Leishmania donovani stood at 45.9 µM; in data set [2], 43.8 µM; in the data set on Plasmodium falciparum, 4.44 µM; with Trypanosoma cruzi, 4.53 µM. In data set [3], the 50% cytotoxic concentration (CC50) at 72 h turned out to be 87.1 µM.

Regarding `c1ccc(C(c2ccn(-c3ccccc3)c2)n2ccnc2)cc1` (stereo not given), the selectivity ratio in [1] amounted to 21; in [7], 2; in [5], 6; in data set [6], 20. Moreover, the IC50 in the data set on Leishmania donovani was 14.5 µM; in data set [2] it was 35.1 µM; with Plasmodium falciparum, 4.14 µM; with Trypanosoma cruzi, 3.91 µM. Besides, half-maximal cytotoxicity in [3] (CC50 at 72 h) was put at 80.8 µM.

Regarding `O=[N+]([O-])c1ccc(-c2c[nH]cc2C(c2ccc(Cl)cc2Cl)n2ccnc2)cc1` (stereo not given), the selectivity ratio amounted to 5 in [1], 3 in data set [7], 2 in data set [5] and 35 in data set [6]. The IC50 with Leishmania donovani came to 7.82 µM; in [2], 5.57 µM; in the data set on Plasmodium falciparum, 0.48 µM; in the data set on Trypanosoma cruzi, 3.22 µM. The molecule also registered a cytotoxic concentration (CC50) at 72 h in data set [3] of 16.9 µM.

Turning to `Fc1ccc(C(c2ccn(-c3ccc(Cl)cc3)c2)n2ccnc2)cc1` (stereo not given), the selectivity ratio in data set [1] is 17; in [7] it was 2; in data set [5], 4; in data set [6], 16. Also, the half-inhibitory concentration (IC50) with Leishmania donovani worked out at 15.8 µM; in data set [2], 36.7 µM; with Plasmodium falciparum it was 3.98 µM; in the data set with Trypanosoma cruzi, 3.75 µM. Also, in data set [3], the CC50 at 72 h is 63.1 µM.

As to `Fc1ccc(-n2ccc(C(c3ccc(Cl)cc3)n3ccnc3)c2)cc1` (stereo not given), the selectivity ratio in [1] came out at 14; in data set [7] it was 3; in data set [5], 5; in data set [6], 15. Besides, the IC50 with Leishmania donovani stood at 10.4 µM; in data set [2], 16.9 µM; with Plasmodium falciparum it was 3.16 µM; in the data set with Trypanosoma cruzi it was 3.3 µM. This molecule also gave a CC50 at 72 h in [3] of 47.5 µM.
